{"source": "patent EP0629400B1", "about": "(TAKEDA CHEMICAL INDUSTRIES, LTD., priority 1993, dated 1994)", "key": {"[1]": {"tested_on": "Patients with Alzheimer type dementia", "experiment": "Double-blind controlled study, efficacy by Alzheimer's Disease Assessment Scale (ADAS)", "format": "in vivo", "conditions": "for Score Difference after 6 Months of Administration (mean ± SD): ADAS, n=100, severity increases as the value increases", "description": "A double-blind controlled study was conducted in patients with Alzheimer type dementia.\nThere was no bias in background factors or pre-administration values for efficacy evaluation index among the three groups. Efficacy was evaluated by the Alzheimer's Disease Assessment Scale (ADAS) [American Journal of Psychiatry, Vol. 141, pp. 1356-1364, (1984)], an index for rating the therapeutic effect on Alzheimer's disease recommended by the FDA and all over the world. The results were statistically analyzed to rate the efficacy.\nThe drugs administered to the patients in the experiment were the tablet preparations of Example 1 and Comparative Examples 1 and 2 above."}, "[2]": {"tested_on": "patients with Alzheimer's disease", "conditions": "45 mg twice a day (daily dose 90 mg); cited from earlier work"}, "mouse astroglias": {"tested_on": "mouse astroglias", "conditions": "cited from earlier work"}}, "data": [{"smiles": "COC1=C(OC)C(=O)C(CCCCCCCCCCO)=C(C)C1=O", "note": "[idebenone, 6-(10-hydroxydecyl)-2,3-dimethoxy-5-methyl-1,4-benzoquinone]", "values": [{"measurement": "symptoms of Alzheimer's disease", "setting": "[1]; 90 mg 3 times a day, compared with 30 mg 3 times a day and placebo", "result": "improvement of statistical significance"}, {"measurement": "Score Difference after 6 Months of Administration (mean ± SD)", "setting": "[1]; 30 mg TID oral after meals (tablets of Comparative Example 1)", "result": "-5.5 ± 7.2"}, {"measurement": "Score Difference after 6 Months of Administration (mean ± SD)", "setting": "[1]; 90 mg TID oral after meals (tablets of Example 1)", "result": "-8.0 ± 8.5"}, {"measurement": "efficacy in patients with Alzheimer's disease", "setting": "[2]", "result": "proved effective"}, {"measurement": "nerve growth factor (NGF) secretion", "setting": "mouse astroglias", "result": "induction and promotion of nerve growth factor (NGF) secretion"}]}]}
